Experimental data reported in US11680056B2, “MK2 inhibitors and uses thereof” (Xinthera, Inc., priority 2021, dated 2023).
Like-named read-outs stand apart in the source and are kept apart here.

Key:
p38a/MK2 = p38a/MK2 (Homo sapiens (Human), UniProt P49137+Q16539); test: p38a/MK2 biochemical assay: activation of MK2 by p38, FITC-HSP27 peptide phosphorylation (IMAP FP); conditions: 10-point 1:3 dilution, 60 pM active p38a, 1 nM inactive MK2, 10 μM ATP, 2 h incubation
p38a/PRAK = p38a/PRAK (Homo sapiens (Human), UniProt Q16539); test: p38a/PRAK biochemical assay: activation of PRAK by p38, FITC-HSP27 peptide phosphorylation (IMAP FP); conditions: 10-point 1:3 dilution, top dose 300 μM; 60 pM active p38a, 1 nM inactive PRAK, 10 μM ATP, 2 h incubation; read-out: p38a/PRAK Enzyme pIC50 (converted)
Chain of p38a/PRAK (Q16539 whole entry): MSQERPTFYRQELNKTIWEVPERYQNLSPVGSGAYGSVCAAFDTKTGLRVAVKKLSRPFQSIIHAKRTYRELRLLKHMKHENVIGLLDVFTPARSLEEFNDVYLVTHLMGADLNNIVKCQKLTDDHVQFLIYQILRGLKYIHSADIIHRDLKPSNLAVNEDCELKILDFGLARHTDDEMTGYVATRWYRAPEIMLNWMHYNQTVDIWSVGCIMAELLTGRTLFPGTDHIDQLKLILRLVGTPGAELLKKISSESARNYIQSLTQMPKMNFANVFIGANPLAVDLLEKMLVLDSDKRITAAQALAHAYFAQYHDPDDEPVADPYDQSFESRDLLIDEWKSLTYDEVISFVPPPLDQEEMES
Outline: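 GST-tagged MK2 (F46–H400) and PRAK (M1–Q471), expressed in E. coli, activated by p38 and phosphorylate FITC-HSP27 peptide over 2 h with compound; readout by IMAP fluorescence polarisation (ex 485/em 528 nm). Ten-point 1:3 dilutions, top dose 1 μM for MK2 and 300 μM for PRAK. IC50 after vehicle normalisation; selectivity = IC50(PRAK)/IC50(MK2).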

[1] = top dose 1 μM, read-out: p38a/MK2 (1 μM) Enzyme pIC50 (converted)
[2] = top dose 10 μM, read-out: p38a/MK2 (10 μM) Enzyme pIC50 (converted)

Chain of p38a/MK2 (P49137 46-400): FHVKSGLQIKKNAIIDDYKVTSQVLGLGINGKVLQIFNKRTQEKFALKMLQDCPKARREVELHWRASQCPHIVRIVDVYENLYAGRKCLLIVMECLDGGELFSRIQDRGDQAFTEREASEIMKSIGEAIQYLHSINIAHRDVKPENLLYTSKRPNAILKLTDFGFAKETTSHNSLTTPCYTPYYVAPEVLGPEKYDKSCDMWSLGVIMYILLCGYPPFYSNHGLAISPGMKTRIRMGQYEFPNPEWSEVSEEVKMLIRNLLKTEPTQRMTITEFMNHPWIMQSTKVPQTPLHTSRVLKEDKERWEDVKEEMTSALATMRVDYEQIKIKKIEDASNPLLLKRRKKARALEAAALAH
Chain of p38a/MK2 (Q16539 whole entry): as the sequence (Q16539 whole entry) above

| SMILES | IC50 (p38a/MK2; [1]) | IC50 (p38a/PRAK) | IC50 (p38a/MK2; [2]) | p38a/MK2 (10 μM) Enzyme pIC50 (p38a/MK2; top dose 10 μM) |
| --- | --- | --- | --- | --- |
| Cc1cnc(-c2cccc(C(C)(C)O)n2)c(F)c1-n1c(C)cc(OCc2ncc(F)cc2F)c(Cl)c1=O (single isomer, unassigned) [Example 63A, rel-3-chloro-4-[(3,5-difluoropyridin-2-yl)methoxy]-1-[3-fluoro-6′-(2-hydroxypropan-2-yl)-5-methyl-[2,2′-bipyridin]-4-yl]-6-methylpyridin-2-one] | > 0.1 µM | > 316 µM |  |  |
| Cc1c(-n2c(C)cc(OCc3ncc(F)cc3F)c(Cl)c2=O)ccnc1-n1ccc(C(C)(C)O)n1 (single isomer, unassigned) [Example 52B, rel-3-chloro-4-((3,5-difluoropyridin-2-yl)methoxy)-2′-(3-(2-hydroxypropan-2-yl)-1H-pyrazol-1-yl)-3′,6-dimethyl-2H-[1,4′-bipyridin]-2-one] | 0.0158 µM | 25.1 µM |  |  |
| Cc1cnc(-c2ccnc(C(O)C3CC3)n2)cc1-n1c(C)cc(OCc2ncc(F)cc2F)c(Cl)c1=O (single isomer, unassigned) [Example 35C, rel-3-chloro-2′-{2-[cyclopropyl(hydroxy)methyl]pyrimidin-4-yl}-4-[(3,5-difluoropyridin-2-yl)methoxy]-5′,6-dimethyl-[1,4′-bipyridin]-2-one] | > 1 µM | > 316 µM |  |  |
| Cc1cnc(-c2ccnc(C3(O)CC3)n2)cc1-n1c(C)cc(OCc2ncc(F)cc2F)c(Cl)c1=O (single isomer, unassigned) [Example 3B, rel-3-chloro-4-[(3,5-difluoropyridin-2-yl)methoxy]-2′-[2-(1-hydroxycyclopropyl)pyrimidin-4-yl]-5′,6-dimethyl-[1,4′-bipyridin]-2-one] |  | > 316 µM | > 10 µM |  |
| Cc1c(-n2c(C)cc(OCc3ncc(F)cc3F)c(Cl)c2=O)ccnc1-n1ccc(C(C)(C)O)n1 (single isomer, unassigned) [Example 52A, rel-3-chloro-4-((3,5-difluoropyridin-2-yl)methoxy)-2′-(3-(2-hydroxypropan-2-yl)-1H-pyrazol-1-yl)-3′,6-dimethyl-2H-[1,4′-bipyridin]-2-one] | > 1 µM | > 316 µM |  |  |
| Cc1cnc(-c2ccnc(C3(O)CCC3)n2)cc1-n1c(C)cc(OCc2ncc(F)cc2F)c(Cl)c1=O (single isomer, unassigned) [Example 41B, rel-3-chloro-4-[(3,5-difluoropyridin-2-yl)methoxy]-2′-[2-(1-hydroxycyclobutyl)pyrimidin-4-yl]-5′,6-dimethyl-[1,4′-bipyridin]-2-one] | > 1 µM | > 316 µM |  |  |
| Cc1cnc(-c2ccnc(C(C)(C)C(F)F)n2)cc1-n1c(C)cc(OCc2ncc(F)cc2F)c(Cl)c1=O (atropisomer, axis not shown) [Example 5, 3-chloro-2′-[2-(1,1-difluoro-2-methylpropan-2-yl)pyrimidin-4-yl]-4-[(3,5-difluoropyridin-2-yl)methoxy]-5′,6-dimethyl-[1,4′-bipyridin]-2-one] |  | 3.16 µM |  | 7.8 |
| Cc1cnc(-c2ccn(C(C)(C)CO)n2)cc1-n1c(C)cc(OCc2ncc(F)cc2F)c(Cl)c1=O (single isomer, unassigned) [Example 25A, rel-3-chloro-4-[(3,5-difluoropyridin-2-yl)methoxy]-2′-[1-(1-hydroxy-2-methylpropan-2-yl)pyrazol-3-yl]-5′,6-dimethyl-[1,4′-bipyridin]-2-one] |  | 3.16 µM | 0.0316 µM |  |
| Cc1cnc(-c2ccnc(C(C)(C)O)n2)c(C)c1-n1c(C)cc(OCc2ncc(F)cc2F)c(Cl)c1=O (single isomer, unassigned) [Example 49A, rel-3-chloro-4-((3,5-difluoropyridin-2-yl)methoxy)-2′-(2-(2-hydroxypropan-2-yl)pyrimidin-4-yl)-3′,5′,6-trimethyl-2H-[1,4′-bipyridin]-2-one] | 0.00631 µM | 3.16 µM |  |  |
| [2H]C([2H])(Oc1cc(C)n(-c2c(C)cnc(-c3ccnc(C(C)(C)O)c3F)c2F)c(=O)c1Cl)c1ncc(F)cc1F (single isomer, unassigned) [Example 65A, rel-3-chloro-1-[3,3′-difluoro-2′-(2-hydroxypropan-2-yl)-5-methyl-[2,4′-bipyridin]-4-yl]-4-[(3,5-difluoropyridin-2-yl)(2H2)methoxy]-6-methylpyridin-2-one] | 0.00398 µM | 0.2 µM |  |  |
| Cc1cnc(-c2ccnc(C3(O)CCOCC3)n2)cc1-n1c(C)cc(OCc2ncc(F)cc2F)c(Cl)c1=O (single isomer, unassigned) [Example 39A, rel-3-chloro-4-((3,5-difluoropyridin-2-yl)methoxy)-2′-(2-(4-hydroxytetrahydro-2H-pyran-4-yl)pyrimidin-4-yl)-5′,6-dimethyl-2H-[1,4′-bipyridin]-2-one] | 0.01 µM | 12.6 µM |  |  |
| Cc1cnc(-c2ccnc(C(C)(C)O)c2)cc1-n1c(C)cc(OCc2ncc(F)cc2F)c(Cl)c1=O (single isomer, unassigned) [Example 38B, rel-3-chloro-4-[(3,5-difluoropyridin-2-yl)methoxy]-2′-[2-(2-hydroxypropan-2-yl)pyridin-4-yl]-5′,6-dimethyl-[1,4′-bipyridin]-2-one] | > 1 µM | > 316 µM |  |  |
| Cc1cnc(-c2cncc(C(C)(C)O)n2)cc1-n1c(C)cc(OCc2ncc(F)cc2F)c(Cl)c1=O (single isomer, unassigned) [Example 51B, rel-3-chloro-4-[(3,5-difluoropyridin-2-yl)methoxy]-2′-[6-(2-hydroxypropan-2-yl)pyrazin-2-yl]-5′,6-dimethyl-[1,4′-bipyridin]-2-one] | > 1 µM | > 316 µM |  |  |
| Cc1cnc(-n2ccc(C(C)(C)O)n2)cc1-n1c(C)cc(OCc2ncc(F)cc2Cl)c(Cl)c1=O (single isomer, unassigned) [Example 47B, rel-3-chloro-4-[(3-chloro-5-fluoropyridin-2-yl)methoxy]-2′-[3-(2-hydroxypropan-2-yl)pyrazol-1-yl]-5′,6-dimethyl-[1,4′-bipyridin]-2-one] | > 1 µM | > 316 µM |  |  |
| Cc1cnc(-c2ccnc(C3(O)CC3)n2)cc1-n1c(C)cc(OCc2ncc(F)cc2F)c(Cl)c1=O (atropisomer, axis not shown) [Example 3, 3-chloro-4-[(3,5-difluoropyridin-2-yl)methoxy]-2′-[2-(1-hydroxycyclopropyl)pyrimidin-4-yl]-5′,6-dimethyl-[1,4′-bipyridin]-2-one] |  | 5.01 µM | 0.02 µM |  |
| Cc1sc(-c2ccnc(C(C)(C)O)n2)cc1-n1c(C)cc(OCc2ncc(F)cc2F)c(Cl)c1=O (single isomer, unassigned) [Example 33B, 3-chloro-4-[(3,5-difluoropyridin-2-yl)methoxy]-1-{5-[2-(2-hydroxypropan-2-yl)pyrimidin-4-yl]-2-methylthiophen-3-yl}-6-methylpyridin-2-one] |  | 50.1 µM |  | 6.5 |
| Cc1cnc(-c2cccc([C@@H](O)CO)n2)cc1-n1c(C)cc(OCc2ncc(F)cc2F)c(Cl)c1=O (single isomer, unassigned) [Example 34A, rel-3-chloro-4-[(3,5-difluoropyridin-2-yl)methoxy]-2′-[6-(1,2-dihydroxyethyl)pyridin-2-yl]-5′,6-dimethyl-[1,4′-bipyridin]-2-one] | 0.02 µM | 10 µM |  |  |
| Cc1cnc(-c2ccnc(C(C)(C)O)c2F)cc1-n1c(C)cc(OCc2ncc(F)cc2F)c(Cl)c1=O (atropisomer, axis not shown) [Example 56A, 3-chloro-4-[(3,5-difluoropyridin-2-yl)methoxy]-1-[3′-fluoro-2′-(2-hydroxypropan-2-yl)-5-methyl-[2,4′-bipyridin]-4-yl]-6-methylpyridin-2-one] | 0.002 µM | 1.58 µM |  |  |
| Cc1cnc(-c2ccc3c(n2)C(C)(O)CC3)cc1-n1c(C)cc(OCc2ncc(F)cc2F)c(Cl)c1=O (single isomer, unassigned) [Example 32D] |  | > 316 µM | 1.26 µM |  |
| Cc1cnc(-c2ccnc(C(C)(C)O)c2F)cc1-n1c(C)cc(OCc2ncc(F)cc2F)c(Cl)c1=O (atropisomer, axis not shown) [Example 56B, 3-chloro-4-[(3,5-difluoropyridin-2-yl)methoxy]-1-[3′-fluoro-2′-(2-hydroxypropan-2-yl)-5-methyl-[2,4′-bipyridin]-4-yl]-6-methylpyridin-2-one] | > 1 µM | > 316 µM |  |  |
| Cc1cnc(-c2ccnc(C3(O)CC3)n2)cc1-n1c(C)cc(OCc2ncc(F)cc2F)c(Cl)c1=O (single isomer, unassigned) [Example 3A, rel-3-chloro-4-[(3,5-difluoropyridin-2-yl)methoxy]-2′-[2-(1-hydroxycyclopropyl)pyrimidin-4-yl]-5′,6-dimethyl-[1,4′-bipyridin]-2-one] | 0.01 µM | 3.98 µM |  |  |
| [2H]C([2H])(Oc1cc(C)n(-c2c(C)cnc(-c3cccc(C(C)(C)O)[n+]3[O-])c2F)c(=O)c1Cl)c1ncc(F)cc1F [Example 68A, rel-4′-{3-chloro-4-[(3,5-difluoropyridin-2-yl) (2H2)methoxy]-6-methyl-2-oxopyridin-1-yl}-3′-fluoro-6-(2-hydroxypropan-2-yl)-5′-methyl-[2,2′-bipyridin]-1-ium-1-olate] | > 0.1 µM | > 316 µM |  |  |
